Data on one molecule can be found in patent US20220017778A1, “Methods of Treating Inorganic Surfaces” (ZYDEX INC., priority 2018, published 2022).

This series can be described thus: Solubility / dispersibility of the product in water. The class given is physicochemical. The settings on record: general statement in the description.

Molecules are shown by their SMILES.

Protocol: A two liter, three necked flask equipped with a condenser, stirrer, thermometer, and distillation head was charged with (i) 136 grams of methyltrimethoxysilane, (ii) 186 grams of monoehtylene glycol, and (iii) 0.6 grams of tetra isopropyltitanate was added into the mixture to facilitate a transesterification reaction to provide a non-ionic water soluble organosilane. This mixture was heated to 120° C. for two hours, during which 92 grams of methanol were recovered after which the reaction was deemed complete.
A two liter, three necked flask equipped with a condenser, stirrer, thermometer, and distillation head was charged with (i) 164 grams of methyltrimethoxysilane, (ii) 186 grams of monoehtylene glycol, and (iii) 0.6 grams of tetra isopropyltitanate was added into the mixture to facilitate a transesterification reaction to provide a non-ionic water soluble organosilane. This mixture was heated to 120° C. for two hours, during which 95 grams of methanol were recovered after which the reaction was deemed complete.

On to `CO[Si](C)(OC)OC` [methyltrimethoxysilane (MTMS), methyltrimethoxysilane], for which the “water solubility, in words (description)” value is listed as “insoluble in water”.
